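Grown in 96-well plates, cells were treated for 48 hours with each compound at five concentrations. Insufficient inhibition: endpoint recorded as highest concentration tested. TGI denotes the concentration required for complete inhibition of growth.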
Columns and labels:
Assay in all cases: NCI-60 cell line screen, 48 h
SR leukemia = tested on: SR leukemia
U251 CNS = tested on: U251 CNS
HOP-62 NSCLC = tested on: HOP-62 NSCLC
SK-OV-3 ovarian = tested on: SK-OV-3 ovarian
MDA-N = tested on: MDA-N
NCI-H23 lung = tested on: NCI-H23 lung
HCC-2998 colon = tested on: HCC-2998 colon
SW-620 colon = tested on: SW-620 colon
HCT-15 colon = tested on: HCT-15 colon
SN12C renal = tested on: SN12C renal
SNB-75 CNS = tested on: SNB-75 CNS
SF-539 CNS = tested on: SF-539 CNS
HL-60(TB) leukemia = tested on: HL-60(TB) leukemia
MOLT-4 leukemia = tested on: MOLT-4 leukemia
HS 578T breast = tested on: HS 578T breast
COLO 205 colon = tested on: COLO 205 colon
SK-MEL-5 melanoma = tested on: SK-MEL-5 melanoma
786-0 renal = tested on: 786-0 renal
UACC-62 melanoma = tested on: UACC-62 melanoma

With `C=CCOC1=C(OCC=C)C(C2COC(C)(C)O2)OC1=O` (configuration not stated) the TGI (SR leukemia) was greater than 100 µM, the TGI (U251 CNS) was greater than 100 µM and the TGI (HOP-62 NSCLC) was greater than 100 µM. The TGI (SK-OV-3 ovarian) was greater than 100 µM, the TGI (MDA-N) was greater than 100 µM and the TGI (NCI-H23 lung) was greater than 100 µM. For the same compound, the TGI (HCC-2998 colon) was greater than 100 µM, the TGI (SW-620 colon) was greater than 100 µM and the TGI (HCT-15 colon) was greater than 100 µM. The TGI (SN12C renal) was greater than 100 µM, the TGI (SNB-75 CNS) was greater than 100 µM and the TGI (SF-539 CNS) was greater than 100 µM. The TGI (HL-60(TB) leukemia) was greater than 100 µM, the TGI (MOLT-4 leukemia) was greater than 100 µM and the TGI (HS 578T breast) was greater than 100 µM. The TGI (COLO 205 colon) was greater than 100 µM, the TGI (SK-MEL-5 melanoma) was greater than 100 µM and the TGI (786-0 renal) was greater than 100 µM. For the same compound, the TGI (UACC-62 melanoma) was greater than 100 µM.
Compound `CCOC(=O)c1cc(C2CCN(CC(C)CC)C2=S)c(-c2cc(C)no2)[nH]1` (configuration not stated) has a TGI (SR leukemia) greater than 100 µM, a TGI (U251 CNS) greater than 100 µM and a TGI (HOP-62 NSCLC) greater than 100 µM. It also gave a TGI (SK-OV-3 ovarian) greater than 100 µM, a TGI (MDA-N) greater than 100 µM and a TGI (NCI-H23 lung) greater than 100 µM. The TGI (HCC-2998 colon) was greater than 100 µM, the TGI (SW-620 colon) was greater than 100 µM and the TGI (HCT-15 colon) was greater than 100 µM. For the same compound, the TGI (SN12C renal) was greater than 100 µM, the TGI (SNB-75 CNS) was greater than 100 µM and the TGI (SF-539 CNS) was greater than 100 µM. The TGI (HL-60(TB) leukemia) was greater than 100 µM, the TGI (MOLT-4 leukemia) was greater than 100 µM and the TGI (HS 578T breast) was greater than 100 µM. The TGI (COLO 205 colon) was greater than 100 µM, the TGI (SK-MEL-5 melanoma) was greater than 100 µM and the TGI (786-0 renal) was greater than 100 µM. It also gave a TGI (UACC-62 melanoma) greater than 100 µM.
In the case of `C=C1CCC2CC1[C@@H](C(=O)c1c[nH]c3ccccc13)NC2(C)C` (some centres not stated), the TGI (SR leukemia) is reported as greater than 37.5 µM, the TGI (U251 CNS) is reported as greater than 37.5 µM and the TGI (HOP-62 NSCLC) is reported as greater than 37.5 µM. For the same compound, the TGI (MDA-N) was greater than 37.5 µM, the TGI (NCI-H23 lung) was greater than 37.5 µM and the TGI (HCC-2998 colon) was 32.4 µM. It also gave a TGI (SW-620 colon) greater than 37.5 µM, a TGI (HCT-15 colon) greater than 37.5 µM and a TGI (SN12C renal) greater than 37.5 µM. For the same compound, the TGI (SNB-75 CNS) was greater than 37.5 µM, the TGI (SF-539 CNS) was greater than 37.5 µM and the TGI (HL-60(TB) leukemia) was greater than 37.5 µM. It also gave a TGI (MOLT-4 leukemia) greater than 37.5 µM, a TGI (HS 578T breast) greater than 37.5 µM and a TGI (COLO 205 colon) greater than 37.5 µM. It also gave a TGI (SK-MEL-5 melanoma) greater than 37.5 µM, a TGI (786-0 renal) greater than 37.5 µM and a TGI (UACC-62 melanoma) greater than 37.5 µM.
Work on `COc1ccc(N=Nc2ccc3oc(=O)c(C(=O)Nc4ccccc4)cc3c2)cc1` yielded a TGI (SR leukemia) greater than 10 µM, a TGI (U251 CNS) greater than 10 µM and a TGI (HOP-62 NSCLC) greater than 10 µM. For the same compound, the TGI (SK-OV-3 ovarian) was greater than 10 µM, the TGI (MDA-N) was greater than 10 µM and the TGI (NCI-H23 lung) was greater than 10 µM. It also gave a TGI (HCC-2998 colon) greater than 10 µM, a TGI (SW-620 colon) greater than 10 µM and a TGI (HCT-15 colon) greater than 10 µM. It also gave a TGI (SN12C renal) greater than 10 µM, a TGI (SNB-75 CNS) greater than 10 µM and a TGI (SF-539 CNS) greater than 10 µM. It also gave a TGI (HL-60(TB) leukemia) greater than 10 µM, a TGI (MOLT-4 leukemia) greater than 10 µM and a TGI (HS 578T breast) greater than 10 µM. For the same compound, the TGI (COLO 205 colon) was greater than 10 µM, the TGI (SK-MEL-5 melanoma) was greater than 10 µM and the TGI (786-0 renal) was greater than 10 µM. For the same compound, the TGI (UACC-62 melanoma) was greater than 10 µM.
In the case of `Cc1nc(-n2[nH]c(C)c(CCO)c2=O)[nH]c(=O)c1CCO`, the TGI (SR leukemia) is reported as greater than 100 µM, the TGI (U251 CNS) is reported as greater than 100 µM and the TGI (HOP-62 NSCLC) is reported as greater than 100 µM. The TGI (SK-OV-3 ovarian) was greater than 100 µM, the TGI (MDA-N) was greater than 100 µM and the TGI (NCI-H23 lung) was greater than 100 µM. For the same compound, the TGI (HCC-2998 colon) was greater than 100 µM, the TGI (SW-620 colon) was greater than 100 µM and the TGI (HCT-15 colon) was greater than 100 µM. For the same compound, the TGI (SN12C renal) was greater than 100 µM, the TGI (SNB-75 CNS) was greater than 100 µM and the TGI (SF-539 CNS) was greater than 100 µM. The TGI (HL-60(TB) leukemia) was greater than 100 µM, the TGI (MOLT-4 leukemia) was greater than 100 µM and the TGI (HS 578T breast) was greater than 100 µM. It also gave a TGI (COLO 205 colon) greater than 100 µM, a TGI (SK-MEL-5 melanoma) greater than 100 µM and a TGI (786-0 renal) greater than 100 µM. It also gave a TGI (UACC-62 melanoma) greater than 100 µM.
`CCN(CC)CCC1CCCCN1CC(=O)N1c2ccccc2NC(=O)c2ccccc21` (configuration not stated) gave a TGI (SR leukemia) greater than 100 µM, a TGI (U251 CNS) greater than 100 µM and a TGI (HOP-62 NSCLC) greater than 100 µM. It also gave a TGI (SK-OV-3 ovarian) greater than 100 µM, a TGI (MDA-N) greater than 100 µM and a TGI (NCI-H23 lung) greater than 100 µM. The TGI (HCC-2998 colon) was greater than 100 µM, the TGI (HCT-15 colon) was greater than 100 µM and the TGI (SN12C renal) was greater than 100 µM. The TGI (SNB-75 CNS) was 92.6 µM, the TGI (SF-539 CNS) was greater than 100 µM and the TGI (HL-60(TB) leukemia) was greater than 100 µM. The TGI (MOLT-4 leukemia) was greater than 100 µM, the TGI (HS 578T breast) was greater than 100 µM and the TGI (COLO 205 colon) was greater than 100 µM. It also gave a TGI (SK-MEL-5 melanoma) greater than 100 µM, a TGI (786-0 renal) greater than 100 µM and a TGI (UACC-62 melanoma) greater than 100 µM.

From PubChem BioAssay (NCI)
